The record followed here is patent US4226865A, “Method of treating depression” (Hoffmann-La Roche Inc., priority 1976, dated 1980).

The subject of one series is monoamine oxidase (MAO). In words: MAO inhibiting activity in liver homogenates of rats one hour after p.o. administration. It is filed as in vivo. Conditions: p.o. in the rat; MAO activity measured in liver homogenates one hour after administration; 60 min. As for the experimental part:
(§1) Thus, the thiobenzamides of formula I to be tested were administered p.o. to rats. One hour after the administration, the rats were killed and the MAO inhibiting activity in the liver homogenates was measured according to the method in Biochem. Pharmacol. 12, pp. 1439-1441 (1963). The thus determined activity of representative thiobenzamides of formula I as well as their toxicity is evident from the ED50 values (μmol/kg, p.o. in the rat) or LD50 values (mg/kg, p.o. in the mouse) listed in the Table which follows: […]

A short description of series [1]: Toxicity (LD50), p.o. in the mouse. Conditions: in vivo, po. On the procedure:
as §1

Consider `S=C(NCCN1CCOCC1)c1ccc(Br)cc1` [p-bromo-N-(2-morpholinoethyl)-thiobenzamide], for which, in the series on monoamine oxidase (MAO), the “ED50 (MAO inhibiting activity)” value was 2 µmol/kg. Also, the LD50 (as a rule, the dose at which mortality reaches 50%) in series [1] lay within 1250 to 2500 mg/kg.

Turning to `S=C(NCCN1CCOCC1)c1ccc(Cl)cc1` [p-chloro-N-(2-morpholinoethyl)thiobenzamide], the “ED50 (MAO inhibiting activity)” value with monoamine oxidase (MAO) was 2 µmol/kg. The compound also came in with an LD50 in series [1] of 1250 to 2500 mg/kg.

In the case of `CC(C)(C)c1ccc(C(=S)NCCN2CCOCC2)cc1` [p-t-butyl-N-(2-morpholinoethyl)-thiobenzamide], the “ED50 (MAO inhibiting activity)” value with monoamine oxidase (MAO) was determined as 10 µmol/kg. In addition, the LD50 in series [1] is more than 5000 mg/kg.
